Where “and” joins values, the source holds several entries; their conditions need not be identical. Equal values may be shown once. Toxic doses and inconclusive results are not listed. Rule as the data show it: active = T/C of 150% or more; inactive = T/C below 125%.
Tested on: L1210 leukemia ip in BDF1 mice, survival T/C
Assay: NCI In Vivo Anticancer Drug Screen. Data for tumor model L1210 Leukemia (intraperitoneal) in B6D2F1 (BDF1) mice
Details: endpoint: mean survival time, higher = longer survival
Summary of the method: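 Tumor was transplanted into mice, which were then dosed with test compound or vehicle alone. Survival was recorded for each group, and the treated figure was expressed relative to the control figure.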

[1] = dose: 100.0 mg/kg/injection, schedule: Q01DX001 (ip), vehicle: carboxymethylcellulose (CMC)
[2] = dose: 200.0 mg/kg/injection, schedule: Q01DX001 (ip), vehicle: carboxymethylcellulose (CMC)
[3] = dose: 100.0 mg/kg/injection, schedule: Q04DX002 (ip), vehicle: saline with Tween-80
[4] = dose: 400.0 mg/kg/injection, schedule: Q04DX002 (ip), vehicle: saline with Tween-80
[5] = dose: 100.0 mg/kg/injection, schedule: Q01DX001 (ip), vehicle: saline
[6] = dose: 200.0 mg/kg/injection, schedule: Q01DX001 (ip), vehicle: saline
[7] = dose: 400.0 mg/kg/injection, schedule: Q01DX001 (ip), vehicle: saline
[8] = dose: 100.0 mg/kg/injection, schedule: Q04DX003 (ip), vehicle: Klucel (hydroxypropylcellulose) (HPC)
[9] = dose: 200.0 mg/kg/injection, schedule: Q01DX009 (ip), vehicle: Klucel (hydroxypropylcellulose) (HPC)
[10] = dose: 200.0 mg/kg/injection, schedule: Q04DX003 (ip), vehicle: Klucel (hydroxypropylcellulose) (HPC)
[11] = dose: 50.0 mg/kg/injection, schedule: Q01DX001 (ip), vehicle: saline

Measured: T/C

CC[n+]1cccc(-c2ccc(NC(=O)/C=C/c3ccc(C(=O)Nc4ccc(-c5ccc[n+](CC)c5)cc4)cc3)cc2)c1
active: dose: 12.5 mg/kg/injection, schedule: Q01DX Z (ip), vehicle: carboxymethylcellulose (CMC) 241 % of control | dose: 25.0 mg/kg/injection, schedule: Q01DX001 (ip), vehicle: carboxymethylcellulose (CMC) 152 % of control and 157 % of control | dose: 25.0 mg/kg/injection, schedule: Q01DX Z (ip), vehicle: carboxymethylcellulose (CMC) 211 % of control | dose: 50.0 mg/kg/injection, schedule: Q01DX001 (ip), vehicle: carboxymethylcellulose (CMC) 202 % of control | dose: 50.0 mg/kg/injection, schedule: Q01DX Z (ip), vehicle: carboxymethylcellulose (CMC) 164 % of control | [1] 238 % of control | [2] 263 % of control
inactive: dose: 7.1 mg/kg/injection, schedule: Q01DX001 (ip), vehicle: carboxymethylcellulose (CMC) 118 % of control | dose: 300.0 mg/kg/injection, schedule: Q01DX001 (ip), vehicle: carboxymethylcellulose (CMC) 120 % of control | dose: 450.0 mg/kg/injection, schedule: Q01DX001 (ip), vehicle: carboxymethylcellulose (CMC) 124 % of control | dose: 675.0 mg/kg/injection, schedule: Q01DX001 (ip), vehicle: carboxymethylcellulose (CMC) 107 % of control

O=C1OC(c2ccco2)=N/C1=C\c1ccc(Cl)c(Cl)c1
inactive: [3] 108 % of control | dose: 200.0 mg/kg/injection, schedule: Q04DX002 (ip), vehicle: saline with Tween-80 105 % of control | [4] 108 % of control

O=C1CCCN1C(=O)C1CC1
inactive: dose: 100.0 mg/kg/injection, schedule: Q01DX001 (ip), vehicle: saline sonified 96 % of control | dose: 100.0 mg/kg/injection, schedule: Q01DX009 (ip), vehicle: saline with Tween-80 91 % of control | dose: 200.0 mg/kg/injection, schedule: Q01DX001 (ip), vehicle: saline sonified 109 % of control | dose: 200.0 mg/kg/injection, schedule: Q01DX009 (ip), vehicle: saline with Tween-80 87 % of control | dose: 400.0 mg/kg/injection, schedule: Q01DX001 (ip), vehicle: saline sonified 106 % of control | dose: 400.0 mg/kg/injection, schedule: Q01DX009 (ip), vehicle: saline with Tween-80 92 % of control

O=CN/N=C/c1c[nH]c(=O)[nH]c1=O
inactive: [5] 101 % of control | [6] 106 % of control | [7] 95 % of control

c1ccc(CNCc2ccc(CNCc3ccccc3)cc2)cc1
inactive: dose: 100.0 mg/kg/injection, schedule: Q04DX003 (ip), vehicle: saline with Tween-80 93 % of control | dose: 200.0 mg/kg/injection, schedule: Q04DX003 (ip), vehicle: saline with Tween-80 97 % of control | dose: 400.0 mg/kg/injection, schedule: Q04DX003 (ip), vehicle: saline with Tween-80 98 % of control

O=c1oc2c(CN3CCCCC3)c(O)ccc2c2c1CCCC2
inactive: [1] 93 % of control | [2] 96 % of control | dose: 400.0 mg/kg/injection, schedule: Q01DX001 (ip), vehicle: carboxymethylcellulose (CMC) 93 % of control

CC(CCC(=O)O)(c1cc(Cl)c(O)c(Cl)c1)c1cc(Cl)c(O)c(Cl)c1
inactive: dose: 100.0 mg/kg/injection, schedule: Q01DX009 (ip), vehicle: gum acacia 95 % of control | dose: 100.0 mg/kg/injection, schedule: Q04DX003 (ip), vehicle: gum acacia 100 % of control | dose: 200.0 mg/kg/injection, schedule: Q01DX009 (ip), vehicle: gum acacia 103 % of control | dose: 200.0 mg/kg/injection, schedule: Q04DX003 (ip), vehicle: gum acacia 92 % of control | dose: 400.0 mg/kg/injection, schedule: Q04DX003 (ip), vehicle: gum acacia 96 % of control

CC(C)(C)C1CC(C(F)(F)F)(C(F)(F)F)OP(=O)(N2CCCCC2)O1 (centres undefined)
inactive: dose: 50.0 mg/kg/injection, schedule: Q01DX001 (ip), vehicle: Klucel (hydroxypropylcellulose) (HPC) 98 % of control | dose: 100.0 mg/kg/injection, schedule: Q01DX001 (ip), vehicle: Klucel (hydroxypropylcellulose) (HPC) 100 % of control | dose: 200.0 mg/kg/injection, schedule: Q01DX001 (ip), vehicle: Klucel (hydroxypropylcellulose) (HPC) 96 % of control

C/C=C(/Cl)c1c(C)cc(C)c(CC(=O)O)c1C
inactive: [8] 92 % of control | dose: 130.0 mg/kg/injection, schedule: Q01DX009 (ip), vehicle: Klucel (hydroxypropylcellulose) (HPC) 110 % of control | [9] 114 % of control | [10] 90 % of control | dose: 400.0 mg/kg/injection, schedule: Q04DX003 (ip), vehicle: Klucel (hydroxypropylcellulose) (HPC) 105 % of control

CCCCOC(=O)/C(=C\c1cccc(OC)c1)NC(=O)c1ccccc1
inactive: dose: 50.0 mg/kg/injection, schedule: Q01DX009 (ip), vehicle: other 92 % of control | dose: 100.0 mg/kg/injection, schedule: Q01DX009 (ip), vehicle: other 89 % of control | dose: 200.0 mg/kg/injection, schedule: Q01DX009 (ip), vehicle: other 100 % of control and 91 % of control | dose: 400.0 mg/kg/injection, schedule: Q01DX009 (ip), vehicle: other 88 % of control

O=CN/N=C/c1ccc(Cl)c([N+](=O)[O-])c1
inactive: dose: 75.0 mg/kg/injection, schedule: Q01DX001 (ip), vehicle: acetone 93 % of control | dose: 150.0 mg/kg/injection, schedule: Q01DX001 (ip), vehicle: acetone 92 % of control | dose: 300.0 mg/kg/injection, schedule: Q01DX001 (ip), vehicle: acetone 92 % of control

c1ccc(-c2oc(-c3ccccc3)c3c(-c4ccccc4)cccc23)cc1
inactive: [3] 105 % of control | [4] 98 % of control

CN(C)C(=O)C1(c2ccc(Cl)cc2)CCN(CCCC(=O)c2ccc(F)cc2)CC1
inactive: dose: 12.5 mg/kg/injection, schedule: Q01DX009 (ip), vehicle: Klucel (hydroxypropylcellulose) (HPC) 94 % of control | dose: 25.0 mg/kg/injection, schedule: Q01DX009 (ip), vehicle: Klucel (hydroxypropylcellulose) (HPC) 94 % of control | dose: 25.0 mg/kg/injection, schedule: Q04DX003 (ip), vehicle: Klucel (hydroxypropylcellulose) (HPC) 121 % of control | dose: 50.0 mg/kg/injection, schedule: Q01DX009 (ip), vehicle: Klucel (hydroxypropylcellulose) (HPC) 100 % of control | dose: 50.0 mg/kg/injection, schedule: Q04DX003 (ip), vehicle: Klucel (hydroxypropylcellulose) (HPC) 106 % of control | dose: 100.0 mg/kg/injection, schedule: Q01DX009 (ip), vehicle: Klucel (hydroxypropylcellulose) (HPC) 111 % of control | [8] 116 % of control | [9] 96 % of control | [10] 116 % of control

COC(=O)CC1CC(C=O)C1 (centres undefined)
inactive: dose: 100.0 mg/kg/injection, schedule: Q04DX002 (ip), vehicle: saline 105 % of control | dose: 200.0 mg/kg/injection, schedule: Q04DX002 (ip), vehicle: saline 102 % of control | dose: 400.0 mg/kg/injection, schedule: Q04DX002 (ip), vehicle: saline 105 % of control

CCC(=O)C(CCN(C)C)(c1ccccc1)c1ccccc1
inactive: [5] 110 % of control

CC12CCC(=O)C=C1CCC1C2CCC2(C)C(C(=O)COC(=O)Cc3ccc(N(CCCl)CCCl)cc3)CCC12 (centres undefined)
inactive: dose: 100.0 mg/kg/injection, schedule: Q01DX001 (sc), vehicle: steriod suspending solution 99 % of control | dose: 200.0 mg/kg/injection, schedule: Q01DX001 (sc), vehicle: steriod suspending solution 101 % of control | dose: 400.0 mg/kg/injection, schedule: Q01DX001 (sc), vehicle: steriod suspending solution 100 % of control | dose: 400.0 mg/kg/injection, schedule: Q01DX009 (ip), vehicle: Klucel (hydroxypropylcellulose) (HPC) 90 % of control

O=c1cc(/C=N\Nc2ccccc2)[nH]c(=O)[nH]1
inactive: [11] 93 % of control | [5] 96 % of control | [6] 93 % of control | [7] 96 % of control

O=C1c2cccc([N+](=O)[O-])c2C(=O)N1c1ncn[nH]1
inactive: dose: 44.0 mg/kg/injection, schedule: Q01DX001 (ip), vehicle: saline 93 % of control and 92 % of control | [11] 100 % of control | dose: 66.0 mg/kg/injection, schedule: Q01DX001 (ip), vehicle: saline 93 % of control and 102 % of control | [5] 95 % of control and 92 % of control | dose: 150.0 mg/kg/injection, schedule: Q01DX001 (ip), vehicle: saline 98 % of control | [6] 111 % of control | [7] 91 % of control

From PubChem BioAssay AID248 (DTP/NCI, 2004)
